Source: patent publication US20250019410A1, “PROCESS FOR THE PREPARATION OF TIRZEPATIDE OR PHARMACEUTICALLY ACCEPTABLE SALT THEREOF” (Sun Pharmaceutical Industries Ltd., priority 2021, published 2025)

Format: physicochemical
Experimental: The solubility of the salts in water (see Table 3), methanol (see Table 4) and phosphate buffer (see Table 5) were tested.

Structure (SMILES) | Solubility - in Water (descriptive term only)
CC[C@H](C)[C@H](NC(=O)[C@H](CC(C)C)NC(=O)[C@H](Cc1c[nH]c2ccccc12)NC(=O)[C@H](CCC(N)=O)NC(=O)[C@@H](NC(=O)[C@H](Cc1ccccc1)NC(=O)[C@H](C)NC(=O)[C@H](CCCCNC(=O)COCCOCCNC(=O)COCCOCCNC(=O)CC[C@H](NC(=O)CCCCCCCCCCCCCCCCCCC(=O)O)C(=O)O)NC(=O)[C@H](CCC(N)=O)NC(=O)[C@H](C)NC(=O)[C@@H](NC(=O)[C@H](CCCCN)NC(=O)[C@H](CC(=O)O)NC(=O)[C@H](CC(C)C)NC(=O)C(C)(C)NC(=O)[C@@H](NC(=O)[C@H](CO)NC(=O)[C@H](Cc1ccc(O)cc1)NC(=O)[C@H](CC(=O)O)NC(=O)[C@H](CO)NC(=O)[C@@H](NC(=O)[C@H](Cc1ccccc1)NC(=O)[C@@H](NC(=O)CNC(=O)[C@H](CCC(=O)O)NC(=O)C(C)(C)NC(=O)[C@@H](N)Cc1ccc(O)cc1)[C@@H](C)O)[C@@H](C)O)[C@@H](C)CC)[C@@H](C)CC)C(C)C)C(=O)N[C@@H](C)C(=O)NCC(=O)NCC(=O)N1CCC[C@H]1C(=O)N[C@@H](CO)C(=O)N[C@@H](CO)C(=O)NCC(=O)N[C@@H](C)C(=O)N1CCC[C@H]1C(=O)N1CCC[C@H]1C(=O)N1CCC[C@H]1C(=O)N[C@@H](CO)C(N)=O [Acetic acid content - 1.06%] | Practically insoluble in water
CC[C@H](C)[C@H](NC(=O)[C@H](CC(C)C)NC(=O)[C@H](Cc1c[nH]c2ccccc12)NC(=O)[C@H](CCC(N)=O)NC(=O)[C@@H](NC(=O)[C@H](Cc1ccccc1)NC(=O)[C@H](C)NC(=O)[C@H](CCCCNC(=O)COCCOCCNC(=O)COCCOCCNC(=O)CC[C@H](NC(=O)CCCCCCCCCCCCCCCCCCC(=O)O)C(=O)O)NC(=O)[C@H](CCC(N)=O)NC(=O)[C@H](C)NC(=O)[C@@H](NC(=O)[C@H](CCCCN)NC(=O)[C@H](CC(=O)O)NC(=O)[C@H](CC(C)C)NC(=O)C(C)(C)NC(=O)[C@@H](NC(=O)[C@H](CO)NC(=O)[C@H](Cc1ccc(O)cc1)NC(=O)[C@H](CC(=O)O)NC(=O)[C@H](CO)NC(=O)[C@@H](NC(=O)[C@H](Cc1ccccc1)NC(=O)[C@@H](NC(=O)CNC(=O)[C@H](CCC(=O)O)NC(=O)C(C)(C)NC(=O)[C@@H](N)Cc1ccc(O)cc1)[C@@H](C)O)[C@@H](C)O)[C@@H](C)CC)[C@@H](C)CC)C(C)C)C(=O)N[C@@H](C)C(=O)NCC(=O)NCC(=O)N1CCC[C@H]1C(=O)N[C@@H](CO)C(=O)N[C@@H](CO)C(=O)NCC(=O)N[C@@H](C)C(=O)N1CCC[C@H]1C(=O)N1CCC[C@H]1C(=O)N1CCC[C@H]1C(=O)N[C@@H](CO)C(N)=O [Ammonium content- 0.25%] | practically insoluble in water
